Where two headings read alike, the source gives them in different places.
How the values were obtained:
human NaV1.8 = human NaV1.8 (Homo sapiens, UniProt Q9Y5Y9); assay: Human NaV1.8 cell line SyncroPatch384PE automated patch clamp assay; format: cell-based; parameters: expressed in transfected cells; host or cells: HEK cells, stably transfected; conditions: resting state block (P1 measurement), recombinant human NaV1.8 cells
Experimental: Compound Profiling on NaV1.8—Human NaV1.8 Cell Line—SyncroPatch384PE Assay
Compounds were tested on recombinant human NaV1.8 stably transfected HELK cells using the SyncroPatch384PE system, an automated patch clamp device. Cells were cultured at 37° C./5% CO2 in DMEM medium supplemented with GlutaMAX I, NEAA 1%, FBS 10% and seeded in T175 flasks. Cells were cultured at 30° C. one day prior to recording sodium currents. On the day of the recordings, cells were detached with 0.05% Trypsin-EDTA, resuspended in serum free DMEM medium and placed into the SyncroPatch384PE 6° C. pre-cooled cell hotel and shaken at 200 rpm. Intracellular solution (IC) contained, in mM: 10, CsCl; 110, CsF; 20, EGTA; 10, HEPES. Extracellular solution (EC) contained, in mM: 140, NaCl; 4, KCl; 5, Glucose; 10, HEPES; 2, CaCl2; 1, MgCl2. Washing solution contained, in mM: 40, NMDG; 100, NaCl; 4, KCl; 10, Glucose; 10, HEPES; 5, CaCl2; 1, MgCl2.
Compounds were tested in quadruplicates in 0.1% DMSO and 0.030% Pluronic Acid. Compounds were diluted 1:3.33 in EC solution to create a 10-point concentration response curve, spanning a final concentration range from 10-0.0002 μM in the assay plate. Compounds with low nM potency were retested using a lower concentration range (1-0.00002 μM). Each plate contained tetracaine and another tool compound as positive controls. Up to 7 compounds were tested on one plate. 150 μM tetracaine and 0.1% DMSO were used as high and low controls, respectively.
Whole cell patch clamp recordings were conducted according to Nanion's standard procedure for SyncroPatch384PE®. Cells were held at a holding potential of −120 mV. A depolarization step to 10 mV for 30 ms was applied (P1 measurement), followed by a hyperpolarization step to −100 mV for 100 ms. An inactivation step at −40 mV for 10 sec was applied before stepping to −100 mV for 20 ms, followed by a step to 10 mV for 30 ms (P2 measurement) and then back to −100 mV for 30 ms. Sweep interval was 15 sec with a sampling rate of 10 kHz. Following establishment of the whole-cell configuration in EC, two washing steps with reference buffer were performed to stabilize the baseline. Compounds were then applied by the SynchroPatch into each well and the current was recorded for five minutes in EC, followed by application of tetracaine to achieve full block at the end of the experiment. The potency of the compounds was assessed on two read-outs, resting state block (P1 measurement) or inactivated state block (P2 measurement) to obtain IC50 values. Values were normalized to high (tetracaine) and low (DMSO) controls.

[1] = target: T1, recombinant human NaV1.8 stably transfected HEK cells (Homo sapiens, UniProt Q9Y5Y9); assay: Compound profiling on NaV1.8, human NaV1.8 cell line, SyncroPatch384PE automated patch clamp assay (Example 115, third set of compounds, Table 27); format: cell-based; conditions: human NaV1.8 HEK cells, Table 27 (third set of compounds)
T1 construct: expressed in transfected cells; host or cells: HEK cells, stably transfected
T1 sequence (Q9Y5Y9 whole entry): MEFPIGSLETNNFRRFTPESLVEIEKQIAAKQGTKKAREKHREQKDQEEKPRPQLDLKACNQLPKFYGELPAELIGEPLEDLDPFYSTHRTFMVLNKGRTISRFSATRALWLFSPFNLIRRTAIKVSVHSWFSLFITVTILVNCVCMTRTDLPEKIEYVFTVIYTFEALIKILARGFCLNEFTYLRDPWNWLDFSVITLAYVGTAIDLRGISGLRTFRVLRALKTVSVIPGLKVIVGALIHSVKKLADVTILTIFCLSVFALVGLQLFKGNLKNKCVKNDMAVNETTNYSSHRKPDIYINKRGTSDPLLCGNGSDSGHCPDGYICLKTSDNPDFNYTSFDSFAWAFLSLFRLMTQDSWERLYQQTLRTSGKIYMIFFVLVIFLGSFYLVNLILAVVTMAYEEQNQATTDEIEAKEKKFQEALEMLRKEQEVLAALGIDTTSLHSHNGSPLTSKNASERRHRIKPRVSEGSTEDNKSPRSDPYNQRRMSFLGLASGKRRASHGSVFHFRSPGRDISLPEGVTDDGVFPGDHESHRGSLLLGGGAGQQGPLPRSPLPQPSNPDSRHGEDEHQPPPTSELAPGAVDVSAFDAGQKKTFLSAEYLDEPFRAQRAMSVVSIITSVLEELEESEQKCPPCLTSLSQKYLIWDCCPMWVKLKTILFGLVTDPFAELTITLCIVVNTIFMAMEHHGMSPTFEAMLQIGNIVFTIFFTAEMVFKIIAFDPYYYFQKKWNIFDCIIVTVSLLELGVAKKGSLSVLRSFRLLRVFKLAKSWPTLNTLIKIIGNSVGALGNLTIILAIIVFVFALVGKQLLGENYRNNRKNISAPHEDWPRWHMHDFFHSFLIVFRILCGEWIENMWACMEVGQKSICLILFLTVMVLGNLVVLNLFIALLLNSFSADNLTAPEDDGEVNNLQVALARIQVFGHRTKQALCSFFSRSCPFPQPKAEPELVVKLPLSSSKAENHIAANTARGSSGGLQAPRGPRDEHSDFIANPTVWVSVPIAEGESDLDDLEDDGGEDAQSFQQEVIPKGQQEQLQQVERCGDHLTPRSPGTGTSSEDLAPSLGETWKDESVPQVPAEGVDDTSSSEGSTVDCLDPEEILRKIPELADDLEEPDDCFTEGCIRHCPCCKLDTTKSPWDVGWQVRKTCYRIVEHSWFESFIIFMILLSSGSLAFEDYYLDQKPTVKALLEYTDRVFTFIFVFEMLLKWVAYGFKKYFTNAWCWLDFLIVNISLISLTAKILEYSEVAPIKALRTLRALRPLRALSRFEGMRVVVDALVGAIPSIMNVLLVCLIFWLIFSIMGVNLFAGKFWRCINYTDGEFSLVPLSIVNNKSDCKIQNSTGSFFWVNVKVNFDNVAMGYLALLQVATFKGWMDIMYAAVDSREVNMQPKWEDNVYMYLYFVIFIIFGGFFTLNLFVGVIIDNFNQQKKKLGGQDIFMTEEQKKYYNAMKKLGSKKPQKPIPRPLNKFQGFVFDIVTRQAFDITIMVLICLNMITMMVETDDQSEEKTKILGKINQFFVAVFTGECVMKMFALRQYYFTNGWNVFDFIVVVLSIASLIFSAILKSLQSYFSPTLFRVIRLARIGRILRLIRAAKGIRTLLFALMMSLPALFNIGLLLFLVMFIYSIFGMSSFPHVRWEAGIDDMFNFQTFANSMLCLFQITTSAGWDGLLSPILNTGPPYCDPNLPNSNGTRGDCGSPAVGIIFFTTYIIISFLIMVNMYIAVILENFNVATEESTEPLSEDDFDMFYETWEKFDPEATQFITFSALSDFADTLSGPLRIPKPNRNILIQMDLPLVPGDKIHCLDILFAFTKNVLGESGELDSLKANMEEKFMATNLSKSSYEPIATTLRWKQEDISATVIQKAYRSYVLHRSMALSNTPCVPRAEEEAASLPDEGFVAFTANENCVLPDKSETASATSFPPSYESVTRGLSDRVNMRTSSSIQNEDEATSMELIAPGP
Method in brief: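 HEK cells, cultured at 30 °C the day before, recorded by automated whole-cell patch clamp (CsF intracellular, 140 mM Na+ external), holding −120 mV. 10-point curves at 10–0.0002 µM (or 1–0.00002 µM), 5 min exposure; IC50 for resting (P1) and inactivated-state block (P2, after 10 s at −40 mV), normalized to 150 µM tetracaine and 0.1% DMSO.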

[2] = inactivated state block (P2 measurement), read-out: P2 IC50
[3] = resting state block (P1 measurement), read-out: P1 IC50

Chain of human NaV1.8 (Q9Y5Y9 whole entry): as above

SMILES	IC50 (human NaV1.8)	IC50 [1, 2]	IC50 [1, 3]
CC(=O)N1CCC[C@@H](NC(=O)c2cc(C(F)(F)F)nnc2Oc2ccc(F)cc2C)C1 [Compound 4]	> 5000 nM	–	–
COc1cc(F)ccc1Oc1nnc(C(F)(F)F)cc1C(=O)N[C@H]1CCCN(C(=O)OC(C)(C)C)C1 [Compound 5, tert-Butyl (S)-3-(3-(4-fluoro-2-methoxyphenoxy)-6-(trifluoromethyl)pyridazine-4-carboxamido)piperidine-1-carboxylate]	> 5000 nM	–	–
COc1cc(F)ccc1Oc1nnc(C(F)(F)F)cc1C(=O)N[C@H]1CCCNC1 [Compound 6, (S)-3-(4-Fluoro-2-methoxyphenoxy)-N-(piperidin-3-yl)-6-(trifluoromethyl)pyridazine-4-carboxamide]	> 5000 nM	–	–
CCOc1cc(F)ccc1Oc1nnc(C)cc1C(=O)Nc1cccc(S(C)(=O)=O)c1 [Compound 108]	–	> 5000 nM	> 5000 nM
Cc1cc(F)ccc1Oc1nnc(C(F)(F)F)cc1C(=O)Nc1ccc(C)c(S(C)(=N)=O)c1 (stereo not drawn) [Compound 109, 3-(4-Fluoro-2-methylphenoxy)-N-(4-methyl-3-(S-methylsulfonimidoyl)phenyl)-6-(trifluoromethyl)pyridazine-4-carboxamide]	–	201 to 500 nM	201 to 500 nM
CSc1cccc(NC(=O)c2cc(C(F)(F)F)nnc2Oc2ccc(C#N)cc2C)c1 [Compound 110]	–	> 5000 nM	> 5000 nM
CSc1cccc(NC(=O)c2cc(C(F)(F)F)nnc2Oc2cc(F)ccc2Cl)c1 [Compound 111]	–	> 5000 nM	> 5000 nM
Cc1cc(C#N)ccc1Oc1nnc(C(F)(F)F)cc1C(=O)Nc1cccc(S(C)(=N)=O)c1 (stereo not drawn) [Compound 114, 3-(4-Cyano-2-methylphenoxy)-N-(3-(S-methylsulfonimidoyl)phenyl)-6-(trifluoromethyl)pyridazine-4-carboxamide]	–	≤ 200 nM	≤ 200 nM
COc1ccc(F)cc1Oc1nnc(C(F)(F)F)cc1C(=O)Nc1cccc(S(C)(=N)=O)c1 (stereo not drawn) [Compound 116]	–	201 to 500 nM	201 to 500 nM
Cc1cc(Br)ccc1Oc1nnc(C(F)(F)F)cc1C(=O)Nc1cccc(S(C)(=N)=O)c1 (stereo not drawn) [Compound 117, 3-(4-Bromo-2-methylphenoxy)-N-(3-(S-methylsulfonimidoyl)phenyl)-6-(trifluoromethyl)pyridazine-4-carboxamide]	–	≤ 200 nM	≤ 200 nM
NS(=O)(=O)c1cccc(NC(=O)c2cc(C(F)(F)F)nnc2Oc2cc(F)ccc2Cl)c1 [Compound 118, 3-(2-Chloro-5-fluorophenoxy)-N-(3-sulfamoylphenyl)-6-(trifluoromethyl)pyridazine-4-carboxamide]	–	≤ 200 nM	≤ 200 nM
Cc1ccc(F)cc1Oc1nnc(C(F)(F)F)cc1C(=O)Nc1cccc(S(N)(=O)=O)c1 [Compound 119, 3-(5-Fluoro-2-methylphenoxy)-N-(3-sulfamoylphenyl)-6-(trifluoromethyl)pyridazine-4-carboxamide]	–	501 to 1000 nM	501 to 1000 nM
COc1cc(C#N)ccc1Oc1nnc(C(F)(F)F)cc1C(=O)Nc1cccc(S(N)(=O)=O)c1 [Compound 121, 3-(4-Cyano-2-methoxyphenoxy)-N-(3-sulfamoylphenyl)-6-(trifluoromethyl)pyridazine-4-carboxamide]	–	≤ 200 nM	≤ 200 nM
COc1ccc(F)cc1Oc1nnc(C(F)(F)F)cc1C(=O)Nc1cccc(S(N)(=O)=O)c1 [Compound 122, 3-(5-Fluoro-2-methoxyphenoxy)-N-(3-sulfamoylphenyl)-6-(trifluoromethyl)pyridazine-4-carboxamide]	–	201 to 500 nM	501 to 1000 nM
Cc1cc(C#N)ccc1Oc1nnc(C(F)(F)F)cc1C(=O)Nc1cccc(S(N)(=O)=O)c1 [Compound 123, 3-(4-Cyano-2-methylphenoxy)-N-(3-sulfamoylphenyl)-6-(trifluoromethyl)pyridazine-4-carboxamide]	–	≤ 200 nM	≤ 200 nM
COc1cc(F)ccc1Oc1nnc(C(F)(F)F)cc1C(=O)Nc1ccc(C(N)=O)nc1 [Compound 125, N-(6-Carbamoylpyridin-3-yl)-3-(4-fluoro-2-methoxyphenoxy)-6-(trifluoromethyl)pyridazine-4-carboxamide]	–	201 to 500 nM	≤ 200 nM
COc1cc(F)ccc1Oc1nnc(C(F)(F)F)cc1C(=O)Nc1ccnc(C(N)=O)c1 [Compound 126, N-(2-Carbamoylpyridin-4-yl)-3-(4-fluoro-2-methoxyphenoxy)-6-(trifluoromethyl)pyridazine-4-carboxamide]	–	≤ 200 nM	≤ 200 nM
CNC(=O)c1ccc(NC(=O)c2cc(C(F)(F)F)nnc2Oc2ccc(F)cc2OC)cc1 [Compound 127, 3-(4-Fluoro-2-methoxyphenoxy)-N-(4-(methylcarbamoyl)phenyl)-6-(trifluoromethyl)pyridazine-4-carboxamide]	–	501 to 1000 nM	501 to 1000 nM
COc1cc(F)ccc1Oc1nnc(C(F)(F)F)cc1C(=O)Nc1cncc(C(N)=O)n1 [Compound 128, N-(6-Carbamoylpyrazin-2-yl)-3-(4-fluoro-2-methoxyphenoxy)-6-(trifluoromethyl)pyridazine-4-carboxamide]	–	> 5000 nM	> 5000 nM
CNC(=O)c1cccc(NC(=O)c2cc(C(F)(F)F)nnc2Oc2ccc(F)cc2OC)c1 [Compound 129, 3-(4-Fluoro-2-methoxyphenoxy)-N-(3-(methylcarbamoyl)phenyl)-6-(trifluoromethyl)pyridazine-4-carboxamide]	–	201 to 500 nM	201 to 500 nM
CS(=O)(=O)c1cccc(NC(=O)c2cc(C(F)(F)F)nnc2Oc2ccc(F)cc2O)c1 [Compound 130, 3-(4-Fluoro-2-hydroxyphenoxy)-N-(3-(methylsulfonyl)phenyl)-6-(trifluoromethyl)pyridazine-4-carboxamide]	–	1000 to 5000 nM	> 5000 nM
NS(=O)(=O)c1cccc(NC(=O)c2cc(C(F)(F)F)nnc2Oc2ccc(F)cc2O)c1 [Compound 131, 3-(4-Fluoro-2-hydroxyphenoxy)-N-(3-sulfamoylphenyl)-6-(trifluoromethyl)pyridazine-4-carboxamide]	–	501 to 1000 nM	201 to 500 nM
Cc1cc(-c2cnoc2)ccc1Oc1nnc(C(F)(F)F)cc1C(=O)Nc1cccc(S(C)(=O)=O)c1 [Compound 132, N-(3-Methanesulfonylphenyl)-3-[2-methyl-4-(1,2-oxazol-4-yl)phenoxy]-6-(trifluoromethyl)pyridazine-4-carboxamide]	–	≤ 200 nM	201 to 500 nM
Cc1cc(-c2cn[nH]c2)ccc1Oc1nnc(C(F)(F)F)cc1C(=O)Nc1cccc(S(C)(=O)=O)c1 [Compound 133, 3-[2-Methyl-4-(1H-pyrazol-4-yl)phenoxy]-N-(3-methylsulfonylphenyl)-6-(trifluoromethyl)pyridazine-4-carboxamide]	–	> 5000 nM	> 5000 nM
Cc1cc(F)ccc1Oc1nnc(C(F)(F)F)cc1C(=O)Nc1cccc2nncn12 [Compound 134, 3-(4-Fluoro-2-methyl-phenoxy)-N-([1,2,4]triazolo[4,3-a]pyridin-5-yl)-6-(trifluoromethyl)pyridazine-4-carboxamide]	–	> 5000 nM	> 5000 nM
Cc1cc(F)ccc1Oc1nnc(C(F)(F)F)cc1C(=O)Nc1ccn2nnnc2c1 [Compound 135, 3-(4-Fluoro-2-methylphenoxy)-N-(tetrazolo[1,5-a]pyridin-7-yl)-6-(trifluoromethyl)pyridazine-4-carboxamide]	–	501 to 1000 nM	≤ 200 nM
COc1c(Oc2ncc(C(F)(F)F)nc2C(=O)Nc2cccc(S(C)(=N)=O)c2)ccc(F)c1F (stereo not drawn) [Compound 136, 3-(3,4-difluoro-2-methoxy-phenoxy)-N-[3-(methylsulfonimidoyl)phenyl]-6-(trifluoromethyl)pyrazine-2-carboxamide]	–	≤ 200 nM	≤ 200 nM

Source: patent US20240336574A1 (LATIGO BIOTHERAPEUTICS, INC., priority 2021, published 2024)
